Results taken from the NIST ThermoML archive (doi:10.1016/j.jct.2010.03.011).

Key:
[1] = 298.2 K; 101 kPa; Liquid; Vibrating tube method
[2] = refractive index (Na D-line) (dimensionless); conditions: 298.2 K; 101.33 kPa; Liquid; Standard Abbe refractometry
[3] = relative permittivity at various frequencies (dimensionless); conditions: 298.2 K; 101.33 kPa; Liquid; Frequency=0.1 MHz
[4] = refractive index (Na D-line) (dimensionless); xn = mol fraction of the nth substance listed; conditions: 298.2 K, 101 kPa, Liquid, Standard Abbe refractometry
[5] = relative permittivity at various frequencies (dimensionless); xn = mol fraction of the nth substance listed; conditions: 298.2 K, 101.33 kPa, Liquid, Frequency=0.1 MHz, Parallel plate capacitor
[6] = xn = mol fraction of the nth substance listed; conditions: 298.2 K, 101 kPa, Liquid, Vibrating tube method

CC(O)CCO (stereo unspecified) [1,3-butanediol]
Conditions	mass density [kg/m3]	refractive index	relative permittivity
[1]	1001.22	–	–
[2]	–	1.4383	–
[3]	–	–	28.692

CC(O)CCO (stereo unspecified) [1,3-butanediol] + C1COCCO1
Conditions	refractive index, [4]	relative permittivity, [5]
x1 = 0.029	1.4206	2.488
x1 = 0.098	1.4217	3.231
x1 = 0.2	1.4233	4.644
x1 = 0.293	1.4251	6.316
x1 = 0.4	1.4265	8.425
x1 = 0.491	1.4282	10.465
x1 = 0.6	1.4301	13.528
x1 = 0.693	1.4319	16.725
x1 = 0.8	1.4343	20.583
x1 = 0.9	1.4362	24.335

CC(O)CCO (stereo unspecified) [1,3-butanediol] + CCCCC(CC)CO
Conditions	mass density, [6] [kg/m3]	refractive index, [4]	relative permittivity, [5]
x1 = 0.1	839.88	1.4295	8.625
x1 = 0.25	855.62	1.4301	10.605
x1 = 0.401	875.88	1.431	13.065
x1 = 0.501	891.81	1.4318	15.056
x1 = 0.6	909.96	1.4329	17.255
x1 = 0.649	919.85	1.4334	18.524
x1 = 0.75	939.91	1.4346	21.039
x1 = 0.9	974.72	1.4367	25.228
x1 = 1	1001.22	1.4383	28.692

OCCCCO [1,4-butanediol]
Conditions	mass density [kg/m3]	refractive index	relative permittivity
[1]	1013.45	–	–
[2]	–	1.4447	–
[3]	–	–	31.539

OCCCCO [1,4-butanediol] + C1COCCO1
Conditions	refractive index, [4]	relative permittivity, [5]
x1 = 0.029	1.4207	2.525
x1 = 0.098	1.422	3.353
x1 = 0.2	1.4243	4.916
x1 = 0.293	1.4263	6.656
x1 = 0.4	1.4288	8.798
x1 = 0.491	1.4311	11.193
x1 = 0.6	1.434	14.491
x1 = 0.693	1.4363	17.889
x1 = 0.8	1.4392	21.914
x1 = 0.9	1.4418	26.541

OCCCCO [1,4-butanediol] + CCCCC(CC)CO
x1 = 1
Conditions	mass density [kg/m3]	refractive index	relative permittivity
[4]	–	1.4447	–
[5]	–	–	31.539
[6]	1013.45	–	–

CC(O)C(C)O (stereo unspecified) [2,3-butanediol]
Conditions	mass density [kg/m3]	refractive index	relative permittivity
[1]	994.31	–	–
[2]	–	1.4348	–
[3]	–	–	21.282

CC(O)C(C)O (stereo unspecified) [2,3-butanediol] + C1COCCO1
Conditions	refractive index, [4]	relative permittivity, [5]
x1 = 0.03	1.4205	2.386
x1 = 0.096	1.4212	2.798
x1 = 0.19	1.4223	3.592
x1 = 0.29	1.4235	4.778
x1 = 0.38	1.4249	5.985
x1 = 0.488	1.4264	7.881
x1 = 0.6	1.4281	10.205
x1 = 0.69	1.4294	12.277
x1 = 0.82	1.4316	16.001
x1 = 0.9	1.433	18.397

CC(O)C(C)O (stereo unspecified) [2,3-butanediol] + CCCCC(CC)CO
x1 = 1
Conditions	mass density [kg/m3]	refractive index	relative permittivity
[4]	–	1.4348	–
[5]	–	–	21.282
[6]	994.31	–	–

CCCCC(CC)CO (stereo unspecified) [2-ethyl-1-hexanol]
Conditions	mass density [kg/m3]	refractive index	relative permittivity
[1]	830.62	–	–
[2]	–	1.4293	–
[3]	–	–	7.611

CCCCC(CC)CO (stereo unspecified) [2-ethyl-1-hexanol] + CC(O)C(C)O
Conditions	mass density, [6] [kg/m3]	refractive index, [4]	relative permittivity, [5]
x2 = 0	830.62	1.4293	7.611
x2 = 0.1	837.79	1.4294	8.197
x2 = 0.25	854.38	1.4297	9.478
x2 = 0.401	874.23	1.4301	11.075
x2 = 0.499	890.64	1.4308	12.36
x2 = 0.55	897.94	1.4311	13.125
x2 = 0.65	916.49	1.4318	14.659
x2 = 0.75	934.5	1.4324	16.407
x2 = 0.898	966.52	1.4337	19.166

CCCCC(CC)CO (stereo unspecified) [2-ethyl-1-hexanol] + OCCCCO
Conditions	mass density, [6] [kg/m3]	refractive index, [4]	relative permittivity, [5]
x2 = 0.099	840.72	1.4299	8.795
x2 = 0.25	858.3	1.4313	11.008
x2 = 0.4	881.5	1.4329	13.706
x2 = 0.5	897.59	1.4343	15.945
x2 = 0.6	916.55	1.4358	18.45
x2 = 0.649	926.55	1.4368	19.741
x2 = 0.749	948.41	1.439	22.751
x2 = 0.9	984.92	1.4424	27.546
